In ChEMBL document CHEMBL3885861, “Open TG-GATES”:

Species: Rattus norvegicus
Assay: Open TG-GATES - Regimen: Single
Type: toxicity, organism-based, Sprague-Dawley
Set-up: regimen Single, gender Male, age 6 weeks
Details: in vivo, po, route gavage; for gamma-GTP / ALP / ALT / AST / CRE / DBIL / IP / K / LDH / Na / RALB / TBIL / TC / TG / TP: tissue Plasma; for Bas / Eos / Fbg / Hb / Lym / MCH / MCHC / MCV / Mono / Neu / PT / RBC / Ret / APTT / WBC: tissue Blood; for KIDNEY_L / KIDNEY_R / KIDNEY_TOTAL: tissue Kidney

Compound: Cc1cnc(NC(=O)C2=C(O)c3ccccc3S(=O)(=O)N2C)s1 [MELOXICAM]
- gamma-GTP (0 mg/kg, 24 h, dose level Control): 1 IU/L
- TERMINAL_BW (10 mg/kg, 3 h, dose level Low): 224.9 g
- Bas (10 mg/kg, 3 h, dose level Low): 0.6%
- Eos (10 mg/kg, 3 h, dose level Low): 1%
- Fbg (10 mg/kg, 3 h, dose level Low): 239 mg/dL
- Hb (10 mg/kg, 3 h, dose level Low): 13.3 g/dL
- Lym (10 mg/kg, 3 h, dose level Low): 78%
- MCH (10 mg/kg, 3 h, dose level Low): 20.8 pg
- MCHC (10 mg/kg, 3 h, dose level Low): 33.6%
- MCV (10 mg/kg, 3 h, dose level Low): 62 fL
- Mono (10 mg/kg, 3 h, dose level Low): 2%
- Neu (10 mg/kg, 3 h, dose level Low): 18.2%
- PT (10 mg/kg, 3 h, dose level Low): 12.2 s
- RBC (10 mg/kg, 3 h, dose level Low): 638.8 x10_4/ul
- Ret (10 mg/kg, 3 h, dose level Low): 7.2%
- KIDNEY_L (10 mg/kg, 3 h, dose level Low): 1 g
- KIDNEY_R (10 mg/kg, 3 h, dose level Low): 1 g
- KIDNEY_TOTAL (10 mg/kg, 3 h, dose level Low): 2 g
- ALP (10 mg/kg, 3 h, dose level Low): 867.6 IU/L
- ALT (10 mg/kg, 3 h, dose level Low): 31.8 IU/L
- AST (10 mg/kg, 3 h, dose level Low): 65.8 IU/L
- CRE (10 mg/kg, 3 h, dose level Low): 0.3 mg/dL
- DBIL (10 mg/kg, 3 h, dose level Low): 0.06 mg/dL
- IP (10 mg/kg, 3 h, dose level Low): 9 mg/dL
- K (10 mg/kg, 3 h, dose level Low): 4 meq/L
- LDH (10 mg/kg, 3 h, dose level Low): 138 IU/L
- Na (10 mg/kg, 3 h, dose level Low): 141 meq/L
- RALB (10 mg/kg, 3 h, dose level Low): 3.3 g/dL
- TBIL (10 mg/kg, 3 h, dose level Low): 0.1 mg/dL
- TC (10 mg/kg, 3 h, dose level Low): 73.6 mg/dL
- TG (10 mg/kg, 3 h, dose level Low): 62.6 mg/dL
- TP (10 mg/kg, 3 h, dose level Low): 5.5 g/dL
- gamma-GTP (10 mg/kg, 3 h, dose level Low): 0.8 IU/L
- TERMINAL_BW (10 mg/kg, 6 h, dose level Low): 223 g
- APTT (10 mg/kg, 6 h, dose level Low): 17.8 s
- Bas (10 mg/kg, 6 h, dose level Low): 0.6%
- Eos (10 mg/kg, 6 h, dose level Low): 0.6%
- Fbg (10 mg/kg, 6 h, dose level Low): 211.6 mg/dL
- Hb (10 mg/kg, 6 h, dose level Low): 13.5 g/dL
- Lym (10 mg/kg, 6 h, dose level Low): 77.4%
- MCH (10 mg/kg, 6 h, dose level Low): 20.7 pg
- MCHC (10 mg/kg, 6 h, dose level Low): 33.6%
- MCV (10 mg/kg, 6 h, dose level Low): 61.8 fL
- Mono (10 mg/kg, 6 h, dose level Low): 2.6%
- Neu (10 mg/kg, 6 h, dose level Low): 18.6%
- RBC (10 mg/kg, 6 h, dose level Low): 648.4 x10_4/ul
- Ret (10 mg/kg, 6 h, dose level Low): 6.4%
- WBC (10 mg/kg, 6 h, dose level Low): 95.9 x10_2/uL
- KIDNEY_L (10 mg/kg, 6 h, dose level Low): 1 g
- KIDNEY_R (10 mg/kg, 6 h, dose level Low): 1 g
- KIDNEY_TOTAL (10 mg/kg, 6 h, dose level Low): 2.1 g
- ALP (10 mg/kg, 6 h, dose level Low): 957 IU/L
- ALT (10 mg/kg, 6 h, dose level Low): 37.2 IU/L
- AST (10 mg/kg, 6 h, dose level Low): 70.6 IU/L
- CRE (10 mg/kg, 6 h, dose level Low): 0.3 mg/dL
- DBIL (10 mg/kg, 6 h, dose level Low): 0.062 mg/dL
- IP (10 mg/kg, 6 h, dose level Low): 9 mg/dL
- K (10 mg/kg, 6 h, dose level Low): 3.9 meq/L
- LDH (10 mg/kg, 6 h, dose level Low): 163.8 IU/L
- Na (10 mg/kg, 6 h, dose level Low): 141 meq/L
- RALB (10 mg/kg, 6 h, dose level Low): 3.2 g/dL
- TBIL (10 mg/kg, 6 h, dose level Low): 0.1 mg/dL
- TC (10 mg/kg, 6 h, dose level Low): 66.8 mg/dL
- TG (10 mg/kg, 6 h, dose level Low): 64.4 mg/dL
- TP (10 mg/kg, 6 h, dose level Low): 5.2 g/dL
- gamma-GTP (10 mg/kg, 6 h, dose level Low): 1 IU/L
- TERMINAL_BW (10 mg/kg, 9 h, dose level Low): 220.5 g
- APTT (10 mg/kg, 9 h, dose level Low): 17.8 s
- Bas (10 mg/kg, 9 h, dose level Low): 0%
- Eos (10 mg/kg, 9 h, dose level Low): 0.8%
- Fbg (10 mg/kg, 9 h, dose level Low): 216.6 mg/dL
- Hb (10 mg/kg, 9 h, dose level Low): 13.4 g/dL
- Lym (10 mg/kg, 9 h, dose level Low): 77.8%
- MCH (10 mg/kg, 9 h, dose level Low): 21 pg
- MCHC (10 mg/kg, 9 h, dose level Low): 34%
- MCV (10 mg/kg, 9 h, dose level Low): 62.1 fL
- Mono (10 mg/kg, 9 h, dose level Low): 2.8%
- Neu (10 mg/kg, 9 h, dose level Low): 17.8%
- RBC (10 mg/kg, 9 h, dose level Low): 637.8 x10_4/ul
- Ret (10 mg/kg, 9 h, dose level Low): 6.7%
- KIDNEY_L (10 mg/kg, 9 h, dose level Low): 1 g
- KIDNEY_R (10 mg/kg, 9 h, dose level Low): 1 g
- KIDNEY_TOTAL (10 mg/kg, 9 h, dose level Low): 2.1 g
- ALP (10 mg/kg, 9 h, dose level Low): 759.6 IU/L
- ALT (10 mg/kg, 9 h, dose level Low): 35 IU/L
- AST (10 mg/kg, 9 h, dose level Low): 66 IU/L
- CRE (10 mg/kg, 9 h, dose level Low): 0.4 mg/dL
- DBIL (10 mg/kg, 9 h, dose level Low): 0.06 mg/dL
- IP (10 mg/kg, 9 h, dose level Low): 9.5 mg/dL
- K (10 mg/kg, 9 h, dose level Low): 3.9 meq/L
- LDH (10 mg/kg, 9 h, dose level Low): 176.6 IU/L
- Na (10 mg/kg, 9 h, dose level Low): 141.8 meq/L
- RALB (10 mg/kg, 9 h, dose level Low): 3.4 g/dL
- TBIL (10 mg/kg, 9 h, dose level Low): 0.1 mg/dL
- TC (10 mg/kg, 9 h, dose level Low): 69.4 mg/dL
- TG (10 mg/kg, 9 h, dose level Low): 41.6 mg/dL
- TP (10 mg/kg, 9 h, dose level Low): 5.3 g/dL
- gamma-GTP (10 mg/kg, 9 h, dose level Low): 1 IU/L
- TERMINAL_BW (10 mg/kg, 24 h, dose level Low): 237.5 g
- Bas (10 mg/kg, 24 h, dose level Low): 0.2%
- Eos (10 mg/kg, 24 h, dose level Low): 0.8%
- Fbg (10 mg/kg, 24 h, dose level Low): 214 mg/dL
- Hb (10 mg/kg, 24 h, dose level Low): 13.1 g/dL
- Lym (10 mg/kg, 24 h, dose level Low): 74.4%
- MCH (10 mg/kg, 24 h, dose level Low): 21.8 pg
- MCHC (10 mg/kg, 24 h, dose level Low): 33.9%
- MCV (10 mg/kg, 24 h, dose level Low): 64.2 fL
- Mono (10 mg/kg, 24 h, dose level Low): 3.2%
- Neu (10 mg/kg, 24 h, dose level Low): 20.8%
- PT (10 mg/kg, 24 h, dose level Low): 11.8 s
- RBC (10 mg/kg, 24 h, dose level Low): 601.4 x10_4/ul
- Ret (10 mg/kg, 24 h, dose level Low): 7%
- WBC (10 mg/kg, 24 h, dose level Low): 133.5 x10_2/uL
- KIDNEY_L (10 mg/kg, 24 h, dose level Low): 1.1 g
- KIDNEY_R (10 mg/kg, 24 h, dose level Low): 1.1 g
- KIDNEY_TOTAL (10 mg/kg, 24 h, dose level Low): 2.2 g
- ALP (10 mg/kg, 24 h, dose level Low): 959.4 IU/L
- ALT (10 mg/kg, 24 h, dose level Low): 36.8 IU/L
- AST (10 mg/kg, 24 h, dose level Low): 70 IU/L
- CRE (10 mg/kg, 24 h, dose level Low): 0.4 mg/dL
- DBIL (10 mg/kg, 24 h, dose level Low): 0.082 mg/dL
- IP (10 mg/kg, 24 h, dose level Low): 7.9 mg/dL
- K (10 mg/kg, 24 h, dose level Low): 4.2 meq/L
- LDH (10 mg/kg, 24 h, dose level Low): 177.8 IU/L
- Na (10 mg/kg, 24 h, dose level Low): 141 meq/L
- RALB (10 mg/kg, 24 h, dose level Low): 3.2 g/dL
- TBIL (10 mg/kg, 24 h, dose level Low): 0.1 mg/dL
- TC (10 mg/kg, 24 h, dose level Low): 72 mg/dL
- TG (10 mg/kg, 24 h, dose level Low): 84.4 mg/dL
